Data published in patent US20060074066A1, “Use of an inhibitor of cathepsin-S or -B to treat or prevent chronic obstructive pulmonary disease” (Yale University, priority 2003, published 2006).
Entries after “also recorded” stand apart in the source; their conditions may differ. Peptide text beside a SMILES is read from it. * marks the point of attachment. Cbz = O=C(OCc1ccccc1)*; CH2F = FC*

Experiments:
Format in all cases: in vivo
IFN-γ-induced apoptosis = assay: TUNEL evaluation of IFN-γ-induced lung cell apoptosis in transgenic mice; conditions: transgene (+) mice on dox; for effect on IFN-γ-induced apoptosis (in words): treated vs vehicle control, 14150 10 mg/kg/day by gavage, CA074 10 mg/Kg/day I.P., leupeptin 15 mg/kg I.P.
Source text: (§1) CC10-rtTA-IFN-γ mice that had been generated in our laboratory and bred for at least 10 generations onto a Balb/c background were used in these studies. These are dual transgene positive animals in which the reverse tetracycline transactivator (rtTA) drives the expression of the murine IFN-γ gene in a lung-specific and externally regulatable fashion. The transgene in these mice is activated by adding doxycycline (dox) to the animal's drinking water. These mice were maintained as dual transgene (+) heterozygotes (refered to as transgene (+) hereafter).
(§2) CC10-rtTA-IFN-γ mice and littermate controls were maintained on normal water until they were 4-6 weeks old.
End labeling of exposed 3′-OH ends of DNA fragments in paraffin embedded tissue was undertaken with the TUNEL in situ cell death detection kit AP (Roche Diagnostics, CA, USA) using the instructions provided by the manufacturer. After staining, 20 fields of alveoli were randomly chosen and 2000 nuclei were counted. The labeled cells were expressed as percentage of total nuclei.

CC10-rtTA-IFN-γ mice [1] = assay: IFN-γ-induced emphysema (lung volume, chord length, alveolar histology, compliance) in transgenic mice; conditions: transgene (+) mice on dox, treated vs vehicle control
Source text: as §1, §2
(§3) Animals were sacrificed via cervical dislocation, a median stemotomy was performed, and right heart perfusion was accomplished with calcium- and magnesium-free PBS to clear the pulmonary intravascular space. The lungs were then fixed to pressure (25 cm) with neutral buffered 10% formalin, fixed overnight in 10% formalin, embedded in paraffm, sectioned at 5 μm and stained. Hematoxylin and eosin (H&E) stains were performed in the Research Histology Laboratory of the Department of Pathology at Yale University School of Medicine.
In brief, the trachea was cannulated, the lungs were degassed and the lungs and heart were removed en bloc and inflated with PBS at 25 cm of pressure. The size of the lung was evaluated via volume displacement. Compliance was calculated as the change in volume divided by the change in pressure.

CC10-rtTA-IFN-γ mice [2] = assay: IFN-γ-induced BAL cell recovery and tissue inflammation; conditions: transgene (+) mice on dox for 2 weeks
Method: Mice were euthanized, the trachea was isolated by blunt dissection, and tubing was secured in the airway. Two volumes of 1 mL of PBS with 0.1% BSA were then instilled and gently aspirated and pooled. Each BAL fluid sample was centriged, and the supernatants were stored in −70° C. until used. The levels of IFN-γ were determined using a commercial ELISA (R&D Systems Inc., Minneapolis, Minn., USA) as per the manufacturer's instructions.
as §3

[3] = tested on: cathepsins B, S, and H and MMPs-2, 9, 12 and 14; assay: Lung mRNA encoding cathepsins and MMPs (RT-PCR, real-time RT-PCR); conditions: transgene (+) mice on dox for 2 weeks

Compound | effect on IFN-γ-induced apoptosis (in words) (IFN-γ-induced apoptosis) | effect on IFN-γ-induced emphysema (lung volume, chord length, histology, compliance; in words) (CC10-rtTA-IFN-γ mice [1]) | decrease of the levels of IFN-γ-induced apoptosis (IFN-γ-induced apoptosis; Z-VAD-fmk 3 μg/kg/day I.P. vs vehicle control) [%] | IFN-γ-induced BAL total cell, neutrophil, lymphocyte and macrophage alterations and tissue inflammation (CC10-rtTA-IFN-γ mice [2]) | IFN-γ-induced increase in mRNA encoding cathepsin B, cathepsin S and MMPs-2 and -14 [3] | levels of mRNA encoding cathepsin H and MMPs-9 and -12 [3] | MMP-9 mRNA induction by IFN-γ [3]
CCCNC(=O)[C@H]1O[C@@H]1C(=O)N[C@H](C(=O)N1CCC[C@H]1C(=O)O)[C@@H](C)CC (relative stereo) [CA074, N-(L-3-trans-propylcarbamoyl-oxirane-2-carbonyl)-L-isoleucyl-L-proline] | significant decreases | significant decreases | – | – | – | – | –
COC(=O)C[C@H](NC(=O)[C@H](C)NC(=O)[C@@H](NC(=O)OCc1ccccc1)C(C)C)C(=O)CF [Z-VAD-fmk] (Cbz-Val-Ala-Asp(OMe)-CH2F) | – | decreased the emphysema generating effects of IFN-γ; also recorded: only partially abrogated | ≥ 85 | markedly ameliorated | markedly ameliorated | not similarly altered | –
CC[C@H](NC(=O)[C@H](CS(=O)(=O)CC(C)C)NC(=O)N1CCOCC1)C(=O)c1nc2ccccc2o1 [compound 14150] | significant decreases; also recorded: significantly inhibited | significant decreases; also recorded: significantly inhibited | – | – | – | – | –
CC(=O)N[C@@H](CC(C)C)C(=O)N[C@@H](CC(C)C)C(=O)N[C@H](C=O)CCCNC(=N)N [leupeptin] | – | – | – | – | decreased | – | leupeptin-dependent
